Data: patent US20190060296A1, “DISCOVERY OF SMALL MOLECULES THAT TARGET THE ANDROGEN RECEPTOR AND USES” (Massachusetts Institute of Technology, priority 2017, published 2019)
pIC50: −log10 of the molar value.

Target: T1, AR-v7 (Homo sapiens, UniProt P10275)
T1 construct: expressed in transfected cells
T1 sequence (P10275 1-644 isoform P10275-3): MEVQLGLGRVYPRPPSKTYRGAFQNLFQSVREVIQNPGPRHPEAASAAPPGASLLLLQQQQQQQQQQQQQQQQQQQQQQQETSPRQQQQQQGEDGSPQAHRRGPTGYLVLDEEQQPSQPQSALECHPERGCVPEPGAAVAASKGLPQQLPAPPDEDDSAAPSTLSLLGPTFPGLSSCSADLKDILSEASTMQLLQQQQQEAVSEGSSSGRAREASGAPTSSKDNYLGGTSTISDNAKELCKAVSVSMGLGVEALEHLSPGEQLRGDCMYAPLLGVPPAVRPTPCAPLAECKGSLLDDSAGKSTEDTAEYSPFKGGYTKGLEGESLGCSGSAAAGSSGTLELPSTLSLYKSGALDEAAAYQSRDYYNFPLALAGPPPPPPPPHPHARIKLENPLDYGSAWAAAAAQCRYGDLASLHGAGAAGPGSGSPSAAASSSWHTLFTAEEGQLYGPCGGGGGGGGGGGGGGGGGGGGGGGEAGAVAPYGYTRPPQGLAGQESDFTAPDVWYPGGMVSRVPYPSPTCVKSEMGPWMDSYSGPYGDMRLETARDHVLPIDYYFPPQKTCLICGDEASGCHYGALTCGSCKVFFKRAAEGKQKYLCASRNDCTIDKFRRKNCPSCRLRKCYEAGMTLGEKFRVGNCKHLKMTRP
Experiment: dual luciferase reporter assay, stable LNCaP cell line with AR-v7 under DOX control and MMTV-driven firefly luciferase
Format: cell-based
Conditions: Reporter Assay at 24 hours; dose response starting at 50 μM, serially diluted 1:1; LNCaP cells
Description: CMV-driven Renilla luciferase is also included as a control. The relative luciferase activity is the firefly luciferase activity normalized to the Renilla luciferase activity. A “dual-reporter assay” is conceptually similar to the single reporter assay described above, and can correct for experimental variation (e.g., cell number, transfection efficiency, etc.). In the case of a dual-reporter assay, a “reporter system” is used, where cells are transfected with two plasmids, the first plasmid comprising the regulatory gene of interest and a first reporter, and the second plasmid comprising a constitutive promoter and a second reporter, wherein the second reporter and the first reporter have biologically distinct activities. The ratio of the first reporter activity (e.g., controlled by the regulatory gene of interest) relative to the second reporter activity (e.g., controlled by the constitutive promoter) corrects for experimental variation. […] In certain embodiments, one or more compounds selected from the SMM screen are submitted to a screen comprising a dual-luciferase assay, the dual-luciferase assay further comprising (i) a first vector comprising a first promoter and a first reporter and (ii) a second vector comprising a second promoter and a second reporter. In certain embodiments, the first vector comprises a first promoter and a first reporter, wherein the first promoter is the MMTV promoter and the first reporter is firefly luciferase. Activation of the androgen receptor, or variant thereof, will promote increased expression of the MMTV-driven firefly luciferase. In certain embodiments, the second vector comprises a second promoter and a second reporter, wherein the second promoter is the cytomegalovirus (CMV) promoter and the second reporter is Renilla luciferase. The CMV promoter is constitutively activated, leading to a basal expression level of Renilla luciferase that serves as a control and can be used to normalize the MMTV-driven firefly luciferase expression level. […] In an embodiment, the first luciferase is firefly luciferase. In an embodiment, the second luciferase is Renilla luciferase. […] In certain embodiments, the firefly luciferase is under control of an MMTV promoter that contains one or more androgen response element (ARE). […] In total, 50,000 molecules were screened against the androgen receptor variant AR-v7 (exons 1-3 truncate of AR-FL) using a small molecule microarray (SMM) (see FIG. 1). […] PSA was used as a readout for both AR-v7 and AR activity in the qPCR assay in LNCaP cells. Selected SMM assay positives were administered to cells at two doses (10 and 30 μM) and PSA expression was evaluated using the Single Shot qPCR kit (BioRad) (see FIG. 2).

Compound	pIC50
O=C(NCC[C@@H]1C[C@@H]2C=C[C@H]1C2)c1cccc(OC2CCN(C(=O)C3CC3)CC2)c1 (relative stereo) [KI-ARv-01, N-{2-[(1S*,2S*,4S*)-bicyclo[2.2.1]hept-5-en-2-yl]ethyl}-3-{[1-(cyclopropylcarbonyl)-4-piperidinyl]oxy}benzamide]	5.27
Fc1ccc(N2CCCN(CC3[C@H]4CNC[C@@H]34)CC2)cc1 (relative stereo) [KI-ARv-04, (1R*,5S*,6r)-6-{[4-(4-fluorophenyl)-1,4-diazepan-1-yl]methyl}-3-azabicyclo[3.1.0]hexane]	4.95
CS(=O)(=O)N1CCC(Oc2cccc(C(=O)NCC[C@@H]3C[C@@H]4C=C[C@H]3C4)c2)CC1 (relative stereo) [KI-ARv-08, N-{2-[(1S*,2S*,4S*)-bicyclo[2.2.1]hept-5-en-2-yl]ethyl}-3-{[1-(methylsulfonyl)-4-piperidinyl]oxy}benzamide]	4.61
COc1ccc(N2CCN(C(=O)c3sc4ncnc(NC[C@H]5C[C@@H]6C=C[C@H]5C6)c4c3C)CC2)cc1 (relative stereo) [KI-ARv-09, N-[(1R*,2S*,4R*)-bicyclo[2.2.1]hept-5-en-2-ylmethyl]-6-{[4-(4-methoxyphenyl)-1-piperazinyl]carbonyl}-5-methylthieno[2,3-d]pyrimidin-4-amine]	< 4.30
Cc1c(C(=O)NCc2ccncc2)sc2ncnc(NC[C@H]3C[C@@H]4C=C[C@H]3C4)c12 (relative stereo) [RO3682, 4-{[(1R*,2S*,4R*)-bicyclo[2.2.1]hept-5-en-2-ylmethyl]amino}-5-methyl-N-(4-pyridinylmethyl)thieno[2,3-d]pyrimidine-6-carboxamide]	4.90
Cc1c(C(=O)N(C)Cc2cccc3ncccc23)sc2ncnc(NCC3C[C@@H]4C=C[C@H]3C4)c12 (stereo partly drawn) [KI-ARv-02, 4-((((1R,4R)-bicyclo[2.2.1]hept-5-en-2-yl)methyl)amino)-N,5-dimethyl-N-(quinolin-5-ylmethyl)thieno[2,3-d]pyrimidine-6-carboxamide]	5.16
CCNc1ncc(-c2cc(-c3cc(C)sc3C)nc(N)c2C#N)cn1 [KI-ARv-05, 2-amino-6-(2,5-dimethyl-3-thienyl)-4-[2-(ethylamino)pyrimidin-5-yl]nicotinonitrile]	4.30
Cc1cc(N2CCC(NCc3cccc(N4CCCC4)c3)CC2)nc(N)n1 [KI-ARv-06, 4-methyl-6-{4-[(3-pyrrolidin-1-ylbenzyl)amino]piperidin-1-yl}pyrimidin-2-amine]	4.83
